Experimental data as given in patent US20140076194A1, “ANTIFOULING BY ADHESION SUPPRESSION” (PURDUE RESEARCH FOUNDATION, priority 2011, published 2014).

Columns and labels:
mussel = assay: Mussel plaque adhesion to coated plates (Instron tensile pull of individual plaques); type: in vivo; set-up: Total Animal Removal Force: unit not given here; settings: for total animal removal force (in words): Tables 4A and 4B, upon addition of antioxidant, versus DBT control; for mussel adhesion (in words): antioxidant or reducing agent in coating; for force to detach animal: estimated from number of plaques and adhesion per plaque, primer control ~5.6 N; for # of plaques (average): primer control 11.3
Description: In order to obtain insights on the antifouling potential of a given coating, we would benefit from a rapid laboratory method to quantify adhesion. Coatings that show decreased adhesion in such a laboratory test can then be sent to other investigators for assays with different organisms as well as field testing. We have recently developed a method for determining the adhesion strength of mussels to surfaces. The adhesive system of mussels lends itself well to precise force measurements. Mussels are placed on a candidate coating for adhesive deposition. The area (m^2) of each plaque is determined by digital photography and use of image analysis software. Individual plaques are then pulled from the surface using clamps in an Instron materials testing system (as illustrated in FIG. 3). […] Beyond simply looking for new antifouling coatings to decrease mussel adhesion, we also take note of the adhesive failure modes on new coatings versus controls. […] Thread breakage is also possible but minimized to nearly zero with our adhesion method. When mussels adhere strongly to a given surface, more cohesive failure is often observed or a mix of both cohesive and adhesive failure. If we inhibit curing of the glue with radical inhibitors on the surface, we may find that more adhesive or cohesive failure is observed. Overall, use of this mussel adhesion assay provides quantitative data on the ability of a candidate antifouling coating to inhibit bioadhesion. Here we will use this assay on each coating. Coatings that decrease mussel adhesion substantially will be carried on to further testing. As an operative example, the animal adheres to a given surface (e.g., aluminum plate). […] The animal is removed by cutting the connecting threads at the shell line. At this point, we are left with the surface, an adhesive plaque, and the thread. Adhesion forces must be normalized for surface contact area. Complete adhesion measurement methods includes obtaining data on the plaque-surface contact area. Mussel plaques are typically not perfect circles or ovals. The small size (approximately 2 mm diameter) and irregular shape may complicate obtaining accurate areas. Prior to adhesive testing, a photograph is taken of the plaque. A Nikon (Melville, N.Y., USA) […] digital camera fitted with a Nikon 50 mm f-1.8 lens and a Kenko 12 mm extension tube is held on a small tripod while the lens is oriented directly onto the plate below. The lens is approximately 18 cm above the plates being photographed. Typical exposure settings include f=3.5, 1/15 second shutter speed, and 200 ISO. Ambient light should be sufficient to capture the images. Photographs are taken in JPEG format at maximum resolution ( 3.3 MB per image). Individual plaques are numbered using a marker prior to taking the photograph so that the numbers are included in the image. These labels allow correlation of specific plaques to tensile strength data. At the time of photographing the plaques, area standards are also photographed. The digital images of the plates can be later revisited for calculating surface area. Image analysis software counts pixels within the plaque, relative to a standard, to provide area (m^2). […] Plates bearing plaques and threads are clamped to the base of the Instronl 5544 materials testing system. A custom designed stainless steel base is fabricated for these experiments. The base is a circular platform 15 cm in diameter with a post and pinhole on the bottom, allowing bolting into the bottom mount of the Instron. Test plates with adhesive are fastened to this base with two Quick-Grip Handi Clamps (Wilmington, Ohio, USA) holding down opposite corners. The Instron is fitted with one screw-action grip (part 2710-004) on the top and a 5N load cell. Detachment force measurements begin by lowering the grips directly over an individual plaque. The thread is lifted by hand and is placed in between the grips. The grips are then tightened over the thread. […]

[1] = Water contact angle of coatings; type: physicochemical; settings: metal primer coating with BHT; metal primer coating alone approximately 106°
Procedure: In some cases added solvent helps the dissolution. We use the same solvent already in the commercial coating (e.g., xylenes or acetone). After curing is complete, the resulting coating is inspected and compared to the control of a similar coating without the adhesion inhibitor. If we observe a lack of curing, crystallization of inhibitors on the surface, lower coating modulus, or color changes the formulation may be discarded from consideration. Water contact angles are then measured for both the coatings and all controls (e.g., coating without inhibitor). Typically the coatings have very similar water contact angles as the controls (e.g., similar to within ˜5°). Large differences in contact angles will also lead to discarding a candidate antifouling formulation. A further narrowing of candidate coatings then takes place. We examine water contact angles (i.e., surface energy) of the evaporative coatings with an antioxidant versus without an added inhibitor. Any coatings with added inhibitor that changes water contact angle by more than 5° may be eliminated from further testing. […] It is envisioned that these modifications are not indicative of whether a particular reductive coating is an effective antifouling coating. […] As part of this selection process, we have approximately twenty (20) coatings to examine, into which we could place approximately eight (8) different antioxidants.

[2] = 2.5% additive in primer, Table 4B
[3] = 25% additive in primer, Table 4A
[4] = 25% additive in primer, Table 4C, recent data with variations versus Table 4A
[5] = Coating: 2.5% (w/w), Table 5B, FIG. 6
[6] = Coating: 25% (w/w), Table 5A, FIG. 5
[7] = primer + 2.5% BHT (w/w) coating, Table 3
[8] = primer + 25% BHT (w/w) coating, Table 3

Row | Compound | % Adhesive Failure (mussel; [2]) [%] | Adhesive Failure (mussel; [2]) [kPa] | Mean Adhesion (mussel; [2]) [kPa] | Plaques/Mussel (mussel; [2]) | Total Animal Removal Force (mussel; [2]) | % Adhesive Failure (mussel; [3]) [%] | Adhesive Failure (mussel; [3]) [kPa] | Mean Adhesion (mussel; [3]) [kPa] | Plaques/Mussel (mussel; [3]) | Total Animal Removal Force (mussel; [3]) | Adhesion (mussel; [4]) [kPa] | Average Force (mussel; [4]) [N] | Average Adhesion (kPa) with 99% CI (mussel; [5]) [kPa] | Average Adhesion (kPa) with 99% CI (mussel; [6]) [kPa] | total animal removal force (in words) (mussel) | mussel adhesion (in words) (mussel) | also measured
1 | CCOc1ccc2c(c1)C(C)=CC(C)(C)N2 [6-ethoxy, 6-ethoxy-1,2-dihydro-2,2,4-trimethylquinoline] | 90.9 | 33.6 | 33.9 | 22.3 | 749 | 76.4 | 33.7 | 34.6 | 18.4 | 620 | 21.23 | 0.0948 | 82.60 ± 4.42 | 58.22 ± 6.73 | decreases significantly | reduce mussel adhesion | –
2 | Cc1cc(C(C)(C)C)c(O)c(C(C)(C)C)c1 [BHT, butylated hydroxytoluene] | 66.7 | 41.5 | 41.5 | 17.4 | 722 | 44.7 | 37.0 | 39.5 | 11.1 | 411 | 37.08 | 0.1894 | 87.82 ± 4.98 | 90.24 ± 6.84 | decreases significantly | – | average mussel adhesion (in words) (mussel; 2.5% and 25% BHT-in-primer coatings versus primer-only controls): decreases significantly; total force needed to remove a mussel (in words) (mussel; BHT in the coating, number of plaques combined with adhesion per plaque): drops by up to half; adhesive produced by the animals (in words) (mussel; BHT-containing panels versus primer-only controls): produce less adhesive; force to detach animal (mussel; [7]): ~3.4 N; # of plaques (average) (mussel; [7]): 9.6 plaques; Adhesion (mussel; primer + 2.5% BHT (w/w) coating, Table 3, primer control 184 ± 68 kPa): 135 ± 58 kPa; force to detach animal (mussel; [8]): ~2.2 N; # of plaques (average) (mussel; [8]): 5.2 plaques; Adhesion (mussel; primer + 25% BHT (w/w) coating, Table 3, primer control 184 ± 68 kPa): 110 ± 43 kPa; water contact angle [1]: approximately 108 °
3 | Cc1cc(C(C)(C)C)c(C)c(C(C)(C)C)c1 [DBT, reference compound] | 7.0 | 49.3 | 45.8 | 24.1 | 1430 | 31.6 | 57.3 | 53.1 | 17.2 | 986 | 47.07 | 0.2198 | 80.31 ± 5.08 | 106.34 ± 6.74 | – | – | –
4 | CC(C)(C)c1cccc(O)c1C(C)(C)C [DTBP, 2,3-di-tert-butylphenol] | 17.6 | 56.9 | 66.5 | 30 | 1707 | 70.7 | 40.4 | 42.0 | 16.9 | 683 | 34.11 | 0.1902 | 89.88 ± 8.45 | 82.63 ± 5.24 | decreases significantly | reduce mussel adhesion | –
5 | COc1ccccc1 [anisole] | 21.1 | 42.0 | 39.7 | 20.1 | 844 | 54 | 56.8 | 59.1 | 17.4 | 988 | 33.53 | 0.1686 | 90.03 ± 8.16 | 75.02 ± 5.39 | decreases significantly | reduce mussel adhesion | –
6 | CC(=O)C(=O)O [pyruvic acid] | – | – | – | – | – | – | – | – | – | – | – | – | – | – | – | reduce mussel adhesion | –
